Tested on: Vero cells
Assay: Senescence induction in Vero cells by chemical stressors (growth, cell size)
Assay type: cell-based, African monkey
Conditions: for cell growth of stressor-treated cells: 200 μM H2O2, 4 μM sodium butyrate, 25 μM Bleomycin Sulphate for 36-48 hours, growth over 48 h
Method: To test the generality of any senescent treatment, the inventors used four different methods to cause Vero cell senescence, replicative, hydrogen peroxide, sodium butyrate and Bleomycin sulfate. Senescence was measured as a decreased growth rate, increased O-gal activity, increased cell size, and secretion of pro-inflammatory factors called SASP. All four criteria were met with each type of senescent cells (FIGS. 1A to 1G). […] (FIG. 1B). There were significant differences in the size of the senescent cells with bleomycin sulfate-treated cells being the largest and replicative senescent cells the smallest (FIGS. 1C and 1D). To assay for SASP activity, the inventors cultured the senescent cells overnight and collected the supernatant from each dish. Supernatants were diluted 1:1 with fresh media and added to normal control cells. The change in normal cell number was measured after a 48 hour incubation. […] When β-galactosidase levels were measured by antibody staining, there was a relatively uniform increase in levels (FIGS. 1F and 1G). Thus, by all four criteria, the four different types of senescent cells were indeed senescent.
Senescence induction and quantification. Vero cells were treated with various stressors including 200 μM H2O2, 4 μM of sodium butyrate (SB), and 25 μM of Bleomycin Sulphate (BS) and incubated for 36-48 hours. After washing with PBS and then replacing growth medium with fresh medium, cells were incubated for 4 days to confirm the growth arrest of senescent cells. […] The inventors used four criteria to determine if cells were senescent; (1) Cell cycle arrest by determining the growth rate, (2) Increase in cell spread area, (3) Development of senescence associated secretory phonotype (SASP) in culture medium, and (4) beta-gal staining. The inventors captured images of cells with an Evos microscope at 10× magnification after treatment and 48 hours post treatment. To measure growth by the increase in cell number, 15 random images were captured, then the average number of cells were determined, which was divided by the area of one frame to get the cell density (cells/cm^2). Then this seeding density was multiplied by the total area of the dish or well to obtain the total number of cells after US treatment and after 48 hours if incubation. The total number of cells at 48 hours was divided by the total number of cells just after the treatment to determine the growth rate. If the ratio was one, there was no growth.
Senescence was detected by the beta-gal senescence staining kit as per manufacturer's protocol. […] The percentages of beta-gal positive cells were determined by counting the number of blue cells and dividing by the total number of cells. Cell spread area was determined by capturing the mages of cells with a 10× objective using an Evos microscope. […]

Compound | cell growth of stressor-treated cells | size of the senescent cells (comparison among types of senescent cells)
OO [hydrogen peroxide] | cell growth was effectively blocked | 
CCCC(=O)[O-].[Na+] [sodium butyrate] | cell growth was effectively blocked | 
Bleomycin sulfate | cell growth was effectively blocked | largest

Source: patent US20240399175A1, “REVERSAL OF SENESCENCE BY ULTRASOUND IRRADIATION” (Board of Regents, The University of Texas System, priority 2021, published 2024)
